According to US9211310B2, “Use of a Chinese medicine composition in preparing medicaments for treating secondary prevention of myocardial infarction” (TASLY PHARMACEUTICAL GROUP CO., LTD, priority 2010, dated 2015):

Tested on: patients after acute myocardial infarction
Test: TCM symptom score, total and single (chest pain, chest tightness, short breath, fatigue, palpitation, spontaneous perspiration, pale complexion), same clinical trial
Type: in vivo, human
Set-up: total score of TCM symptom, Mean / total score of TCM symptom, Min / total score of TCM symptom, Max / total score of TCM symptom, Md / change of total score of TCM symptom, Mean / change of total score of TCM symptom, Max / change of total score of TCM symptom, Md: scale not given here
Settings: PP
From the text: 3508 patients who were in accordance with the diagnostic standards of AMI for 28 days to 2 years and differentiated as Qi deficiency and blood stagnation syndrome by TCM were studied. 0.5 g Chinese medicine composition prepared by the method of EXAMPLE 1 (Coded as QSYQ) was administrated half an hour after meal, 3 times per day.
They included the overall survival time, angina pectoris score, TCM symptom score and life quality score, where angina pectoris score, TCM symptom score and life quality score were evaluated at randomization, in 1st, 3rd, 6th, 9th, 12th month after treatment and 18th month after follow-up.
The analysis method referred to the angina pectoris score.

[1] = 6 months after treatment-baseline
[2] = 9 months after treatment-baseline

## CC(=O)Oc1ccccc1C(=O)O [Control group, aspirine]
[1]
  change of spontaneous perspiration 0, number of patients: 774
  change of spontaneous perspiration 0, percent of patients: (54.32%)
  change of spontaneous perspiration 1, number of patients: 414
  change of spontaneous perspiration 1, percent of patients: (29.05%)
  change of spontaneous perspiration 2, number of patients: 88
  change of spontaneous perspiration 2, percent of patients: (6.18%)
  change of spontaneous perspiration 3, number of patients: 24
  change of spontaneous perspiration 3, percent of patients: (1.68%)
  change of spontaneous perspiration −1, number of patients: 105
  change of spontaneous perspiration −1, percent of patients: (7.37%)
  change of spontaneous perspiration −2, number of patients: 20
  change of spontaneous perspiration −2, percent of patients: (1.40%)
  change of spontaneous perspiration −3, number of patients: 0
  change of spontaneous perspiration −3, percent of patients: (0.00%)
  change of total score of TCM symptom, Max: 19.00
  change of total score of TCM symptom, Md: −3.00
  change of total score of TCM symptom, Mean: −4.11
  change of total score of TCM symptom, Min: −28.00
9 months after treatment
  distribution of total score of TCM symptom: Medium, number of patients: 323
  distribution of total score of TCM symptom: Medium, percentage of patients: (22.84%)
  distribution of total score of TCM symptom: Mild, number of patients: 1088
  distribution of total score of TCM symptom: Mild, percentage of patients: (76.94%)
  distribution of total score of TCM symptom: Severe, number of patients: 3
  distribution of total score of TCM symptom: Severe, percentage of patients: (0.21%)
  fatigue score 0, % of patients: (35.22%)
  fatigue score 0, number of patients: 498
  fatigue score 2, % of patients: (60.61%)
  fatigue score 2, number of patients: 857
  fatigue score 4, % of patients: (3.47%)
  fatigue score 4, number of patients: 49
  fatigue score 6, % of patients: (0.71%)
  fatigue score 6, number of patients: 10
  pale complexion score 0, number of patients: 788
  pale complexion score 0, percent of patients: (55.69%)
  pale complexion score 1, number of patients: 520
  pale complexion score 1, percent of patients: (36.75%)
  pale complexion score 2, number of patients: 101
  pale complexion score 2, percent of patients: (7.14%)
  pale complexion score 3, number of patients: 6
  pale complexion score 3, percent of patients: (0.42%)
  palpitation score 0, number of patients: 496
  palpitation score 0, percent of patients: (35.05%)
  palpitation score 2, number of patients: 782
  palpitation score 2, percent of patients: (55.27%)
  palpitation score 4, number of patients: 122
  palpitation score 4, percent of patients: (8.62%)
  palpitation score 6, number of patients: 15
  palpitation score 6, percent of patients: (1.06%)
  short breath score 0, % of patients: (29.42%)
  short breath score 0, number of patients: 416
  short breath score 3, % of patients: (58.27%)
  short breath score 3, number of patients: 824
  short breath score 6, % of patients: (11.95%)
  short breath score 6, number of patients: 169
  short breath score 9, % of patients: (0.35%)
  short breath score 9, number of patients: 5
  spontaneous perspiration score 0, number of patients: 678
  spontaneous perspiration score 0, percent of patients: (47.95%)
  spontaneous perspiration score 1, number of patients: 652
  spontaneous perspiration score 1, percent of patients: (46.11%)
  spontaneous perspiration score 2, number of patients: 79
  spontaneous perspiration score 2, percent of patients: (5.59%)
  spontaneous perspiration score 3, number of patients: 5
  spontaneous perspiration score 3, percent of patients: (0.35%)
  total score of TCM symptom, Max: 37.00
  total score of TCM symptom, Md: 8.00
  total score of TCM symptom, Mean: 8.88
  total score of TCM symptom, Min: 0.00
[2]
  change of fatigue 0, % of patients: (48.12%)
  change of fatigue 0, number of patients: 679
  change of fatigue 2, % of patients: (35.65%)
  change of fatigue 2, number of patients: 503
  change of fatigue 4, % of patients: (7.94%)
  change of fatigue 4, number of patients: 112
  change of fatigue 6, % of patients: (1.28%)
  change of fatigue 6, number of patients: 18
  change of fatigue −2, % of patients: (6.52%)
  change of fatigue −2, number of patients: 92
  change of fatigue −4, % of patients: (0.50%)
  change of fatigue −4, number of patients: 7
  change of fatigue −6, % of patients: (0.00%)
  change of fatigue −6, number of patients: 0
  change of pale complexion 0, number of patients: 1049
  change of pale complexion 0, percent of patients: (74.66%)
  change of pale complexion 1, number of patients: 316
  change of pale complexion 1, percent of patients: (22.49%)
  change of pale complexion −1, number of patients: 40
  change of pale complexion −1, percent of patients: (2.85%)
  change of palpitation 0, number of patients: 749
  change of palpitation 0, percent of patients: (53.12%)
  change of palpitation 1, number of patients: 493
  change of palpitation 1, percent of patients: (34.96%)
  change of palpitation 2, number of patients: 71
  change of palpitation 2, percent of patients: (5.04%)
  change of palpitation 3, number of patients: 6
  change of palpitation 3, percent of patients: (0.43%)
  change of palpitation −1, number of patients: 87
  change of palpitation −1, percent of patients: (6.17%)
  change of palpitation −2, number of patients: 4
  change of palpitation −2, percent of patients: (0.28%)
  change of short breath 0, % of patients: (56.60%)
  change of short breath 0, number of patients: 798
  change of short breath 2, % of patients: (33.33%)
  change of short breath 2, number of patients: 470
  change of short breath 4, % of patients: (3.83%)
  change of short breath 4, number of patients: 54
  change of short breath 6, % of patients: (0.50%)
  change of short breath 6, number of patients: 7
  change of short breath −2, % of patients: (5.53%)
  change of short breath −2, number of patients: 78
  change of short breath −4, % of patients: (0.14%)
  change of short breath −4, number of patients: 2
  change of short breath −6, % of patients: (0.07%)
  change of short breath −6, number of patients: 1
  change of spontaneous perspiration 0, number of patients: 717
  change of spontaneous perspiration 0, percent of patients: (50.85%)
  change of spontaneous perspiration 1, number of patients: 434
  change of spontaneous perspiration 1, percent of patients: (30.78%)
  change of spontaneous perspiration 2, number of patients: 105
  change of spontaneous perspiration 2, percent of patients: (7.45%)
  change of spontaneous perspiration 3, number of patients: 26
  change of spontaneous perspiration 3, percent of patients: (1.84%)
  change of spontaneous perspiration −1, percent of patients: (8.65%)
  change of spontaneous perspiration −2, number of patients: 6
